Reference: publication PMC4833812, “Incorporation of tryptophan analogues into the lantibiotic nisin” (Amino Acids, 2016)

Assays:
Micrococcus flavus = conditions: ref Kuipers et al. 1995; Demel et al. 1996; Van Kraaij et al. 1997; Breukink et al. 1998; cited from earlier work
Text: (§1) The first two rings of nisin can bind to lipid II which is essential for cell wall synthesis. The C-terminus of nisin can insert into the membrane enabling pore formation (Breukink and de Kruijff [2006]). Mutagenesis of nisin has been conducted extensively and several residues have been mutated to tryptophan, e.g. I1W, M17W and V32W, which all reduce nisin activity but not dramatically, against Micrococcus flavus by two to three times and against Streptococcus thermophilus by three to eigh ... || The first two rings of nisin can bind to lipid II by forming a pyrophosphate cage (Hsu et al. [2004]).

[1] = test system: Streptococcus thermophilus; conditions: ref Kuipers et al. 1995; Demel et al. 1996; Van Kraaij et al. 1997; Breukink et al. 1998; cited from earlier work
Text: as §1

[2] = Retention time in reverse phase chromatography (HPLC); format: physicochemical; conditions: reverse phase HPLC as described previously (Zhou et al. 2015); used by the paper to reflect changed hydrophobicity/polarity of the variants
Protocol: To obtain pure peptides for activity tests, the supernatant of 100 ml culture (filtered with 0.2 µm filter, Millipore) was first incubated with 5 ml supernatant of NisP (filtered) at 30 °C for 1 h to cut off the leader part and then purified with cation-ion exchange (HiTrap SP FF, GE healthcare) (van Heel et al. [2013]). The elutions were further loaded on a C18 column (Spherical C18, Sigma- Aldrich). The column was washed and eluted with different concentrations of solution B (solution A, milliQ with 0.1 % TFA; solution B, isopropanol: acetonitrile (2:1) with 0.1 % TFA). The elutions which were active against L. lactis were freeze-dried and further purified with HPLC as described previously (Zhou et al. [2015]). The fractions containing the peaks in the HPLC chromatogram were analysed by activity tests and MALDI-TOF (van Heel et al. [2013]). The peak which was active and contained the pure peptide with right mass was freeze-dried and quantified with HPLC as described previously (Zhou et al. [2015]).
Nisin is a positively charged and hydrophobic molecule. […] This difference was reflected by the elution time of the peptides in cation-ion exchange and reverse phase chromatography (HPLC). The variants with 5HW were eluted about half column volume earlier than other variants during cation-ion exchange (data not shown).

L. lactis MG1363 = experiment: MIC test against indicator strain L. lactis MG1363; format: cell-based, Lactococcus lactis; conditions: for Change of antimicrobial activity, in words: I1 variants compared to I1W, I4 variant compared to nisin
Protocol: The indicator strain L. lactis MG1363 was first streaked on a GM17 plate and cultured overnight. Before testing the MIC, three to five colonies were picked and cultured with GM17 medium until OD600 reached 0.5. The culture was diluted 500 times with GM17 and mixed with the same volume of peptides dissolved in GM17. The MIC value test was performed according to Wiegand et al. ([2008]).

| Compound | Reduction of nisin activity against Micrococcus flavus (Micrococcus flavus) | Reduction of nisin activity against Streptococcus thermophilus [1] | Retention time of HPLC [2] [min] | Reduction of antimicrobial activity compared to nisin (L. lactis MG1363; from MIC values) | Change of antimicrobial activity, in words (L. lactis MG1363; listed as 5FW analogue of I1W) | Change of antimicrobial activity, in words (L. lactis MG1363; listed as 5FW labelled I1W) | Reduction of antimicrobial activity compared to I1W (L. lactis MG1363; from MIC values) |
| --- | --- | --- | --- | --- | --- | --- | --- |
| C=C(NC(=O)[C@@H](NC(=O)[C@H](Cc1c[nH]cn1)NC(=O)[C@@H](NC(=O)[C@H](CO)NC(=O)[C@@H]1CS[C@@H](C)[C@H]2NC(=O)[C@H](C)NC(=O)[C@H](NC(=O)[C@H](CCCCN)NC(=O)[C@H](CCSC)NC(=O)[C@H](CC(N)=O)NC(=O)[C@@H]3CS[C@@H](C)[C@@H](NC(=O)[C@H](CCCCN)NC(=O)[C@@H]4CS[C@@H](C)[C@@H](NC(=O)[C@@H]5CSC[C@@H](NC(=O)/C(=C/C)NC(=O)[C@@H](N)Cc6c[nH]c7ccccc67)C(=O)N[C@@H]([C@@H](C)CC)C(=O)NC(=C)C(=O)N[C@@H](CC(C)C)C(=O)N5)C(=O)N5CCC[C@H]5C(=O)NCC(=O)N4)C(=O)NCC(=O)N[C@@H](C)C(=O)N[C@@H](CC(C)C)C(=O)N[C@@H](CCSC)C(=O)NCC(=O)N3)[C@H](C)SC[C@H](NC2=O)C(=O)N[C@@H](Cc2c[nH]cn2)C(=O)N1)[C@@H](C)CC)C(C)C)C(=O)N[C@@H](CCCCN)C(=O)O [I1-W] | two to three | three to eight | 38.0 | two |  |  |  |
| C=C(NC(=O)[C@@H](NC(=O)[C@H](Cc1c[nH]cn1)NC(=O)[C@@H](NC(=O)[C@H](CO)NC(=O)[C@@H]1CS[C@@H](C)[C@H]2NC(=O)[C@H](C)NC(=O)[C@H](NC(=O)[C@H](CCCCN)NC(=O)[C@H](CCSC)NC(=O)[C@H](CC(N)=O)NC(=O)[C@@H]3CS[C@@H](C)[C@@H](NC(=O)[C@H](CCCCN)NC(=O)[C@@H]4CS[C@@H](C)[C@@H](NC(=O)[C@@H]5CSC[C@@H](NC(=O)/C(=C/C)NC(=O)[C@@H](N)[C@@H](C)CC)C(=O)N[C@@H]([C@@H](C)CC)C(=O)NC(=C)C(=O)N[C@@H](CC(C)C)C(=O)N5)C(=O)N5CCC[C@H]5C(=O)NCC(=O)N4)C(=O)NCC(=O)N[C@@H](C)C(=O)N[C@@H](CC(C)C)C(=O)N[C@@H](Cc4c[nH]c5ccccc45)C(=O)NCC(=O)N3)[C@H](C)SC[C@H](NC2=O)C(=O)N[C@@H](Cc2c[nH]cn2)C(=O)N1)[C@@H](C)CC)C(C)C)C(=O)N[C@@H](CCCCN)C(=O)O [M17-W] | two to three | three to eight | 38.5 | 32 times |  |  |  |
| C=C(NC(=O)[C@@H](NC(=O)[C@H](Cc1c[nH]cn1)NC(=O)[C@@H](NC(=O)[C@H](CO)NC(=O)[C@@H]1CS[C@@H](C)[C@H]2NC(=O)[C@H](C)NC(=O)[C@H](NC(=O)[C@H](CCCCN)NC(=O)[C@H](CCSC)NC(=O)[C@H](CC(N)=O)NC(=O)[C@@H]3CS[C@@H](C)[C@@H](NC(=O)[C@H](CCCCN)NC(=O)[C@@H]4CS[C@@H](C)[C@@H](NC(=O)[C@@H]5CSC[C@@H](NC(=O)/C(=C/C)NC(=O)[C@@H](N)[C@@H](C)CC)C(=O)N[C@@H]([C@@H](C)CC)C(=O)NC(=C)C(=O)N[C@@H](CC(C)C)C(=O)N5)C(=O)N5CCC[C@H]5C(=O)NCC(=O)N4)C(=O)NCC(=O)N[C@@H](C)C(=O)N[C@@H](CC(C)C)C(=O)N[C@@H](Cc4c[nH]c5ccc(O)cc45)C(=O)NCC(=O)N3)[C@H](C)SC[C@H](NC2=O)C(=O)N[C@@H](Cc2c[nH]cn2)C(=O)N1)[C@@H](C)CC)C(C)C)C(=O)N[C@@H](CCCCN)C(=O)O [M17-5HW] |  |  | 37.2 | 32 times |  |  |  |
| C=C(NC(=O)[C@@H](NC(=O)[C@H](Cc1c[nH]cn1)NC(=O)[C@@H](NC(=O)[C@H](CO)NC(=O)[C@@H]1CS[C@@H](C)[C@H]2NC(=O)[C@H](C)NC(=O)[C@H](NC(=O)[C@H](CCCCN)NC(=O)[C@H](CCSC)NC(=O)[C@H](CC(N)=O)NC(=O)[C@@H]3CS[C@@H](C)[C@@H](NC(=O)[C@H](CCCCN)NC(=O)[C@@H]4CS[C@@H](C)[C@@H](NC(=O)[C@@H]5CSC[C@@H](NC(=O)/C(=C/C)NC(=O)[C@@H](N)Cc6c[nH]c7ccc(F)cc67)C(=O)N[C@@H]([C@@H](C)CC)C(=O)NC(=C)C(=O)N[C@@H](CC(C)C)C(=O)N5)C(=O)N5CCC[C@H]5C(=O)NCC(=O)N4)C(=O)NCC(=O)N[C@@H](C)C(=O)N[C@@H](CC(C)C)C(=O)N[C@@H](CCSC)C(=O)NCC(=O)N3)[C@H](C)SC[C@H](NC2=O)C(=O)N[C@@H](Cc2c[nH]cn2)C(=O)N1)[C@@H](C)CC)C(C)C)C(=O)N[C@@H](CCCCN)C(=O)O [I1-5FW] |  |  | 38.9 | two | did not change the activity | the same activity |  |
| C=C(NC(=O)[C@@H](NC(=O)[C@H](Cc1c[nH]cn1)NC(=O)[C@@H](NC(=O)[C@H](CO)NC(=O)[C@@H]1CS[C@@H](C)[C@H]2NC(=O)[C@H](C)NC(=O)[C@H](NC(=O)[C@H](CCCCN)NC(=O)[C@H](CCSC)NC(=O)[C@H](CC(N)=O)NC(=O)[C@@H]3CS[C@@H](C)[C@@H](NC(=O)[C@H](CCCCN)NC(=O)[C@@H]4CS[C@@H](C)[C@@H](NC(=O)[C@@H]5CSC[C@@H](NC(=O)/C(=C/C)NC(=O)[C@@H](N)Cc6c[nH]c7ccc(O)cc67)C(=O)N[C@@H]([C@@H](C)CC)C(=O)NC(=C)C(=O)N[C@@H](CC(C)C)C(=O)N5)C(=O)N5CCC[C@H]5C(=O)NCC(=O)N4)C(=O)NCC(=O)N[C@@H](C)C(=O)N[C@@H](CC(C)C)C(=O)N[C@@H](CCSC)C(=O)NCC(=O)N3)[C@H](C)SC[C@H](NC2=O)C(=O)N[C@@H](Cc2c[nH]cn2)C(=O)N1)[C@@H](C)CC)C(C)C)C(=O)N[C@@H](CCCCN)C(=O)O [I1-5HW] |  |  | 35.0 | four |  |  | two |
